# Values quoted from earlier work in PMC12664280, “Integrative transcriptomics and peptidomics approach reveals unexpectedly diverse endogenous secretory peptides in Odorrana grahami frog skin” (BMC Biology, 2025).
# Bridges are numbered along the chain shown (N, C = ends). Where no end group is shown, it is not given here.
# System: not given
# Conditions: previously reported ESPs in Odorrana grahami, Table S1; cited from earlier work
# Source text: (§1) Supplement 12915_2025_2463_MOESM1_ESM.xlsx, sheet "Table S1" | column: Previously reported ESPs in Odorrana grahami
Substance,Functional effect: myotropic activities,Functional effect: lectin
DDASDRAKKFYGLM [ranamargarin],myotropic activities,–
DDTEDLANKFIGLM [tachykinin_OG1],myotropic activities,–
QNTYRAPQWAVGHLM [odorranain-BLP-5],myotropic activities,–
QRECRAPHWAIGHFM [odorranain-BLP-1],myotropic activities,–
QREYRAPHWAIGHFM [odorranain-BLP-4],myotropic activities,–
QREYRTPHWAIGHFM [odorranain-BLP-3],myotropic activities,–
QSTYRAPQWAVGHLM [odorranain-BLP-2],myotropic activities,–
RPPGFSPFR [bradykinin],myotropic activities,–
RPPGFTPFR [Thr6-bradykinin],myotropic activities,–
RPPGLTPFR [Leu5Thr6-bradykinin],myotropic activities,–
YASPKCFRYPNGVLACT [odorranalectin],–,lectin

# Same assay, conditions: previously reported ESPs in Odorrana grahami, Table S1; discovered in brain only; cited from earlier work
row,Substance,Functional effect: opioid peptide
1,DYTIRTRLHQESSRKVL [odorranaopin],opioid peptide discovered in brain ONLY

# System: NO release
# Conditions: previously reported ESPs in Odorrana grahami, Table S1; cited from earlier work
# Source text: as §1
row,Substance,Functional effect: inhibits NO release
1,"GLFGKILGVGKKVLCGLSGMC (disulfide 15-21 (inferred)) [nigrocin-2GRb, FSAP family mature peptide identified via LC-MS/MS in O. grahami skin secretion]",inhibits NO release
2,GLGGAKKNFIIAANKTAPQSVKKTFSCKLYNG [odorranain-E1],inhibits NO release

# System: trypsin
# Conditions: previously reported ESPs in Odorrana grahami, Table S1; cited from earlier work
# Source text: as §1
row,Substance,Functional effect: trypsin inhibitor
1,AALKGCWTKSIPPKPCFGKR [odorranain-B1],trypsin inhibitor
2,"AVNIPFKVHFRCKAAFC (disulfide 12-17 (inferred)) [OGTI, FSAP family mature peptide identified via LC-MS/MS in O. grahami skin secretion]",trypsin inhibitor

# System: HaCat cells
# Design: method as in PMID 18455266
# Conditions: mechanically injured HaCat cells; enhancing the expression of CXCL8, TGFβ, COX-2, VEGF and TLR2; ref [94]; cited from earlier work
row,Substance,In vitro wound healing potential
1,bombesin,in vitro wound healing potential

# System: skin wound
# Conditions: previously reported ESPs in Odorrana grahami, Table S1; cited from earlier work
# Source text: Supplement 12915_2025_2463_MOESM1_ESM.xlsx, sheet "Table S1" | column: Previously reported ESPs in Odorrana grahami || The cathelicidin family: In this study, we report two new ESPs, OG-CATH1 and OG-CATH2, with OG-CATH1 corresponding to two precursor proteins. These peptides are similar to OL-CATH1 and OL-CATH2 from the skin of O. livida, and Cathelicidin-RC1 from frog L. catesbeianus (Fig. S12). However, they show low similarity (20.3%, data not shown) to Cathelicidin-OA1 from the skin of O. andersonii.
row,Substance,Functional effect: wound-healing
1,APFRMGICTTN [odorregulin-E1],wound-healing
2,ATAWDFGPHGLLPIRPIRIRPLCG [odorranain-M1],wound-healing

# System: not given
# Conditions: annotation in words; no reference given, so it comes from the DADP database (table note); ref DADP database; cited from earlier work
# Source text: Supplement 12915_2025_2463_MOESM1_ESM.xlsx, sheet "Table S8" | column: Functional effect
row,Substance,Functional effect
1,AALRGCWTKSIPPKPCSGKR [Odorranain-B-RA1],antimicrobial
2,ATNIPFKVHFRCKAAFC [Ranatuerin-2R-RA1],antimicrobial
3,AVNIPFKVHFRCKAAFC [Ranatuerin-2R-RA2],antimicrobial
4,DANVENGEDAEDLTDKFIGLMG [Andersonin-6],immunomodulating
5,DCTRWIIGINGRICRD [Nigroain-E-RA],antimicrobial
6,FLPAVIRVAANVLPTAFCAISKKC [Brevinin-1-RAA10],antimicrobial
7,FLPKLFAGIISKNF [Andersonin-Y2],antimicrobial
8,FLPKLFAKITKKNMAHIR [Andersonin-Y1],antimicrobial
9,FLPPSPWKETFRTS [Odorranain-S-RA],antimicrobial
10,FMPILSCSRFKRC [Odorranain-G-RA2],antimicrobial
11,GCSRWIIGIHGQICRD [Odorranain-U-RA],antimicrobial
12,GFMATAKNVAKNMDVTLLDNLKCKITKAC [Odorranain-F-OA4],antimicrobial
13,GFMDTAKNVAKNEAGNLLDNLKCKITKAC [Odorranain-F-OA3],antimicrobial
14,GFMDTAKNVAKNMAGNLLDNLKCKITKAC [Odorranain-F-OA1],antimicrobial
15,GFMDTAKNVAKNMAVTLLDNLKCKITKAC [Odorranain-F-RA1],antimicrobial
16,GIFGKILGVGKKTLCELSGMC [Nigrocin-1-OA2],antimicrobial
17,GIFLKVLGVGKKVLCGVSGLC [Nigrocin-1-OA3],antimicrobial
18,GIFTLIKGAAKLIGKTVAKEAGKTGLELMACKITNQC [Esculentin-2-RA2],antimicrobial
19,GILDTFKNMALNAAKSAGVSVLNALSCKLSKTC [Brevinin-2-RA9],antimicrobial
20,GLFSKFAGKGIKDLIFKGVKHIGKEVGMDVIRTGIDVAGCKIKGEC [Esculentin-1-RA8],antimicrobial
21,GLFSKFAGKGIKNFLIKGVKHIGKEVGMDVIRTGIDVAGCKIKGEC [Esculentin-1-RA5],antimicrobial
22,GLFSKFAGKGIKNFLNKGVKHIGKE [Esculentin-1-OA6],antimicrobial
23,GLFSKFAGKGIKNLIFKGVKHIGKEVGMDVIRTGIDVAGCKIKGEC [Esculentin-1-RA7],antimicrobial

row,Substance,Functional effect
1,GLFSKFAGKGIVNFLIEGVE [Andersonin-X1],antimicrobial
2,GLFSKFSGKGIKNFLIKGVKHIGKEVGMDVIRTGIDVAGCKIKGEC [Esculentin-1-OA2],antimicrobial
3,GLFSKFVGKGIKNFLIKGVKHIGKEVGMDVIRVGIDVAGCKIKGVC [Esculentin-1-OA1],antimicrobial
4,GLFTKFAGKGIKDLIFKGVKHIGKEVGMDVIRTGIDVAGCKIKGEC [Esculentin-1-RA4],antimicrobial
5,GLFTLIKGAAKLIGKTTAKEAGKTGKLEMACKITNQC [Esculentin-2-OA2],antimicrobial
6,GLFTLIKGAAKLIGKTVAKEAGKTGLELMACKITNQC [Esculentin-2-OA3],antimicrobial
7,GLFTLIKGAYKLDAPTVACN [Odorranain-J-OA1],antimicrobial
8,GLFTLIKGAYKNDAPTVACN [Odorranain-J-OA2],antimicrobial
9,GLLDGILNANFNAAKSAGTSVLNALSCKLSKTC [Brevinin-2-OA5],antimicrobial
10,GLLDTFKNLALNAAESAGVSVLNSLSCKLSKTC [Brevinin-2-RA5],antimicrobial
11,GLLDTFKNLALNAAKSAGVSVLNSLSCKLSKTC [Brevinin-2-RA11],antimicrobial
12,GLLDTFKNMAINAAHGAGVSVLNALSCKLKKTC [Brevinin-2-OA3],antimicrobial
13,GLLDTFKNMALNAAKSAGVSVLNALSCKLSKTC [Brevinin-2-OA2],antimicrobial
14,GLLRASSVWGRKYYVDLAGCAKA [Odorranain-W-RA1],antimicrobial
15,GLLSGILGAGKHIVCGLSGLC [Nigrosin-RA2],antimicrobial
16,GLLSGVLGVGKKIVCGLSGLC [Nigrosin-RA3],antimicrobial
17,GVLATVKNLLIGTGDGAAQSVLKTLSCKLSNDC [Brevinin-2-OA6],antimicrobial
18,GVLATVKNLLNGTGDGAAQSVLKTLSCKLSNDC [Brevinin-2-OA8],antimicrobial
19,GVLGTVKDLLIGAGKSAAQSTLKTLSCKISNDC [Brevinin-2-OA7],antimicrobial
20,VIPFVASVAAEMMQHVYCAASKKC [Odorranain-P-RA2],antimicrobial
21,VIVFVASVAAEMMQHVYCAASKKC [Odorranain-P-RA1],antimicrobial
22,VVKCSYRLGSPDSQCN [Odorranain-A-RA7],antimicrobial

# Same assay, conditions: annotation in words; ref [4]; cited from earlier work
row,Substance,Functional effect
1,ENMFNIKSSVESDSFWG [Andersonin-N1],"Insulin-Releasing, immunomodulating"
2,FIFPKKNIINSLFGR [Andersonin-I1],"antimicrobial, Insulin-Releasing, immunomodulating"
3,GLLSGINAEWPC [OA-GL12],wound-healing
4,QMFHLWYLRHMKNKKPMA [Andersonin-X],"Insulin-Releasing, immunomodulating"
5,TSRCIFYRRKKCS [Andersonin-G],"antimicrobial,Insulin-Releasing"
6,VAIYGRDDRSDVCRQVQHNWLVCDTY [Andersonin-M3],immunomodulating
7,VVKFSYRKGSPAPQKN [Odorranain-A-OA12],immunomodulating
